{"source": "patent US8003595B2", "about": "“Amino acid sequences facilitating penetration of a substance of interest into cells and/or cell nuclei” (Cellectis, priority 2000, dated 2011)", "key": {"[1]": {"assay": "ELISA fixation of biotinylated peptides on sensitized plates", "type": "binding", "settings": "read-out: avidity (Kd), quantity of peptides necessary to obtain 50% fixation, Heparin; Table 5", "experimental": "The capacity of peptides SEQ ID NO: 1 to 21 to attach themselves to DNA and heparin is evaluated on ELISA plates sensitized with DNA or heparin. Dilutions of biotinylated peptides are deposited on the plates and their fixation is shown using streptavidin conjugated with peroxidase. […] The avidity of each of the peptides for DNA or heparin is evaluated by the quantity (×10^−6 M) of peptides necessary to obtain 50% fixation."}, "[2]": {"system": "gram-positive and gram-negative bacterial strains", "assay": "Antibacterial activity of cationic peptides, summary over strains", "type": "cell-based", "settings": "summary of Table 29", "experimental": "The gram-positive bacterial strains are: Enterococcus faecalis (ATCC 29212), and Staphylococcus aureus (ATCC 25923) and the gram-negative strains are: Escherichia coli (ATCC 25922), Pseudomonas aeruginosa (ATCC 27853) and Salmonella typhimurim (clinical isolate), Salmonella typhiTy2 (WHO). The bacteria are cultured with shaking all night at 37° C., then recultured at a dilution of 1:50 in some fresh Luria-Bertani (LB) medium for 2 hours. The bacterial concentration is adjusted to […], and 50 μl is distributed in 96-well plates with an equal volume of peptides diluted half and half (256-0.5 μg/ml) in LB medium. […] To determine the minimum bactericide concentration, 10 μl from each well is spread on gelose plates in LB medium.\nHowever, when peptide HPB13 (SEQ ID NO: 38) is coupled with peptide SEQ ID NO: 24, it enhances its activity by a factor of 50 to 100 (peptide SEQ ID NO: 45). […] None these peptides are active on gram-positive bacteria."}, "Caco-2 cell monolayers": {"system": "Caco-2 cell monolayers", "assay": "Integrity of the Caco-2 barrier model in presence of HBP peptides", "settings": "Table 30; 30 μg/ml, 8 hours in HBSS; three inserts; listed as HBP7", "protocol": "Caco-2 cells were seeded at a density of 160000 cells/cm^2 on a polyethylene terephtalate microporous membranes, previously coated with bovine dermal collagen, in a synthetic serum-free medium (Basal Defined Medium, BDM). Culture medium was changed three times a week and cells were maintained at 37° C. in a an atmosphere of 5% CO2 for 18 days. As a negative control to check the integrity of the Caco-2 barrier, 10^6 dpm/ml D-[^14C]-mannitol was used. […] Other controls included D-[^14C]-mannitol/L-[^3H]-Proline+HBP7 30 μg/ml and D-[^14C]-mannitol/L-[^3H]-proline+HBP10 30 μg/ml.\nTrans-epithelial transport experiments were carried out. The trans-epithelial electrical resistance (TEER) was measured to check the integrity of the Caco-2 cell monolayers. The cell monolayers were preincubated in Hanks' balanced salt solution (HBSS, 5 mM glucose, supplemented with 10 mM Hepes) for 8 hours at 37° C. At 1, 2, 4 and 8 hours, 100 μl of medium was collected from the lower compartment and replaced by fresh HBSS. At the end of the experiment (8 hours), the cell monolayers were washed three times with PBS and TEER was measured."}, "H1299 cells [3]": {"system": "H1299 cells", "assay": "Internalization of covalent peptide-peroxidase conjugates", "type": "cell-based, human", "settings": "H1299, 0.2 μg/ml conjugate, 2 hours", "how_it_was_run": "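Peptides coupled via C-terminal cysteine to maleimide-activated peroxidase; uncoupled peptide removed by ultrafiltration. H1299 cells incubated 2 h with increasing conjugate concentrations, washed, lysed; internalized peptide quantified from lysate peroxidase against a conjugate standard curve, as pg/10^3 cells.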"}, "H1299 cells [4]": {"system": "H1299 cells", "assay": "Inhibition of peptide-peroxidase internalization by drugs or 4° C.", "type": "cell-based, human", "settings": "peptide-peroxidase 0.2 μg/ml, 2 hours", "experimental": "To understand the biological mechanisms whereby the peptides penetrate into the cells and their compartmentalization, experiments are done with drugs whose action on certain cell compartments is specific. The peptide-peroxidases were incubated with H1299 cells at a concentration of 0.2 μg/ml for 2 hours in the presence, or not, of a drug. The cells were lysed, and the peroxidase dosed in the cellular lysate."}, "[5]": {"assay": "ELISA fixation of biotinylated peptides on sensitized plates", "type": "binding", "settings": "read-out: avidity (Kd), quantity of peptides necessary to obtain 50% fixation, Chondroitin B; Table 5"}, "HeLa": {"system": "HeLa", "assay": "Internalization of covalent peptide-peroxidase conjugates", "type": "cell-based, human", "settings": "2 hours", "how_it_was_run": "(§1)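 Peptides coupled via C-terminal cysteine to maleimide-activated peroxidase, free peptide removed by ultrafiltration. Cells incubated 2 h with 0.2 μg/ml conjugate; peroxidase dosed in lysates, expressed as pg/10^3 cells.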"}, "[6]": {"assay": "ELISA fixation of biotinylated peptides on sensitized plates", "type": "binding", "settings": "read-out: avidity (Kd), quantity of peptides necessary to obtain 50% fixation, Chondroitin C; Table 5"}, "3T3": {"system": "3T3", "assay": "Internalization of covalent peptide-peroxidase conjugates", "type": "cell-based, mouse", "settings": "2 hours", "how_it_was_run": "as §1"}, "[7]": {"assay": "ELISA fixation of biotinylated peptides on sensitized plates", "type": "binding", "settings": "read-out: avidity (Kd), quantity of peptides necessary to obtain 50% fixation, Chondroitin A; Table 5"}}, "note": "Read-outs that look alike come from different tables or passages of the source. Where no end group is shown, it is not given here.", "data": [{"sequence": "GKRKKKGKLGKKRDP [SEQ ID NO: 30]", "values": [{"measurement": "Kd", "setting": "[1]", "value": 54, "unit": "nM"}, {"measurement": "bactericide / anti-microbial activity", "setting": "[2]", "value": "no anti-microbial activity"}, {"measurement": "TEER after incubation", "setting": "Caco-2 cell monolayers", "value": "145 Ω · cm^2"}, {"measurement": "Internalization of Peptide-peroxidase", "setting": "H1299 cells [3]; Table 9", "value": 22.5, "unit": "pg/10^3 cells"}, {"measurement": "Internalization of Peptide-peroxidase", "setting": "H1299 cells [3]; Table 9B", "value": 63.3, "unit": "pg/10^3 cells"}, {"measurement": "percentage inhibition of peptide internalization", "setting": "H1299 cells [4]; Ammonium chloride (50 mM)", "value": 70, "unit": "%"}, {"measurement": "percentage inhibition of peptide internalization", "setting": "H1299 cells [4]; Chloroquin (100 μM)", "value": 79, "unit": "%"}, {"measurement": "percentage inhibition of peptide internalization", "setting": "H1299 cells [4]; Genistein (200 μM)", "value": 68, "unit": "%"}, {"measurement": "percentage inhibition of peptide internalization", "setting": "H1299 cells [4]; Sodium chloride (80 mM)", "value": 69, "unit": "%"}, {"measurement": "percentage inhibition of peptide internalization", "setting": "H1299 cells [4]; Temperature (4° C.)", "value": 100, "unit": "%"}, {"measurement": "Kd", "setting": "[5]", "value": 58, "unit": "nM"}, {"measurement": "Internalization of Peptide-peroxidase", "setting": "HeLa; Table 9, 0.2 μg/ml conjugate", "value": 11, "unit": "pg/10^3 cells"}, {"measurement": "Internalization of Peptide-peroxidase", "setting": "HeLa; Table 9B, 0.2 μg/ml conjugate", "value": 3.6, "unit": "pg/10^3 cells"}, {"measurement": "Kd", "setting": "[6]", "value": 19, "unit": "nM"}, {"measurement": "Internalization of Peptide-peroxidase", "setting": "3T3; Table 9, 0.2 μg/ml conjugate", "value": 48.8, "unit": "pg/10^3 cells"}, {"measurement": "Internalization of Peptide-peroxidase", "setting": "3T3; Table 9B, 0.2 μg/ml conjugate", "value": 44.2, "unit": "pg/10^3 cells"}, {"measurement": "Kd", "setting": "[7]", "value": 78, "unit": "nM"}]}]}
